Test results as given in PubChem BioAssay AID256 (DTP/NCI, 2004).
Where “and” joins values, the source holds several entries; their conditions need not be identical. Equal entries are not always repeated. Inconclusive results and toxic doses are left out. The calls were made as follows: active = survival T/C of 150% or more; inactive = T/C below 125% in these data.

System: CD2F1 mice, L1210 leukemia ip, survival T/C
Experiment: NCI In Vivo Anticancer Drug Screen. Data for tumor model L1210 Leukemia (intraperitoneal) in CD2F1 (CDF1) mice
Conditions: higher = longer survival
In short: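 Antitumor effect is scored in animals hosting a serially transplanted tumor. Values compare compound-dosed animals against vehicle-only controls as a simple quotient.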

[1] = endpoint: mean survival time, dose: 100.0 mg/kg/injection, schedule: Q04DX003 (ip), vehicle: saline with Tween-80
[2] = endpoint: mean survival time, dose: 200.0 mg/kg/injection, schedule: Q04DX003 (ip), vehicle: saline with Tween-80
[3] = endpoint: mean survival time, dose: 400.0 mg/kg/injection, schedule: Q04DX003 (ip), vehicle: saline with Tween-80
[4] = endpoint: mean survival time, dose: 200.0 mg/kg/injection, schedule: Q01DX009 (ip), vehicle: other

Measured: T/C

Cc1c2ccccc2c(CSCCC(N)C(=O)O)c2ccccc12 (centres undefined)
inactive: [1] 96 % of control | [2] 93 % of control | [3] 90 % of control

[N-]=[N+]=CC(=O)NCC(=O)NCCO
inactive: endpoint: mean survival time, dose: 50.0 mg/kg/injection, schedule: Q01DX001 (ip), vehicle: other 101 % of control | endpoint: mean survival time, dose: 100.0 mg/kg/injection, schedule: Q01DX001 (ip), vehicle: other 103 % of control | endpoint: mean survival time, dose: 200.0 mg/kg/injection, schedule: Q01DX001 (ip), vehicle: other 106 % of control | [4] 103 % of control | endpoint: mean survival time, dose: 400.0 mg/kg/injection, schedule: Q01DX001 (ip), vehicle: other 109 % of control | endpoint: mean survival time, dose: 600.0 mg/kg/injection, schedule: Q01DX009 (ip), vehicle: other 121 % of control | endpoint: mean survival time, dose: 1000.0 mg/kg/injection, schedule: Q01DX009 (ip), vehicle: other 114 % of control

N#C/C(=C/c1ccccc1Cl)C(N)=O
inactive: endpoint: mean survival time, dose: 100.0 mg/kg/injection, schedule: Q01DX001 (ip), vehicle: saline sonified 103 % of control | endpoint: mean survival time, dose: 200.0 mg/kg/injection, schedule: Q01DX001 (ip), vehicle: saline sonified 100 % of control | endpoint: mean survival time, dose: 400.0 mg/kg/injection, schedule: Q01DX001 (ip), vehicle: saline sonified 104 % of control

c1ccc(CN=NNc2ccccc2)cc1
inactive: endpoint: mean survival time, dose: 75.0 mg/kg/injection, schedule: Q01DX001 (ip), vehicle: saline 94 % of control | endpoint: mean survival time, dose: 150.0 mg/kg/injection, schedule: Q01DX001 (ip), vehicle: saline 100 % of control | endpoint: mean survival time, dose: 300.0 mg/kg/injection, schedule: Q01DX001 (ip), vehicle: saline 103 % of control

COc1cccc(CC2NCCc3c2[nH]c2ccccc32)c1 (centres undefined)
inactive: endpoint: mean survival time, dose: 25.0 mg/kg/injection, schedule: Q01DX001 (ip), vehicle: saline with Tween-80 98 % of control | endpoint: mean survival time, dose: 50.0 mg/kg/injection, schedule: Q01DX001 (ip), vehicle: saline with Tween-80 90 % of control | endpoint: mean survival time, dose: 100.0 mg/kg/injection, schedule: Q01DX001 (ip), vehicle: saline with Tween-80 87 % of control

Clc1ccc(C2c3ccccc3C[n+]3ccccc32)cc1 (centres undefined)
inactive: endpoint: mean survival time, dose: 12.5 mg/kg/injection, schedule: Q04DX003 (ip), vehicle: Klucel (hydroxypropylcellulose) (HPC) 93 % of control | endpoint: mean survival time, dose: 25.0 mg/kg/injection, schedule: Q04DX003 (ip), vehicle: Klucel (hydroxypropylcellulose) (HPC) 93 % of control

CN(C)C(=O)c1ccccc1C(=O)c1ccccc1
inactive: endpoint: mean survival time, dose: 100.0 mg/kg/injection, schedule: Q04DX002 (ip), vehicle: saline with Tween-80 94 % of control | endpoint: mean survival time, dose: 200.0 mg/kg/injection, schedule: Q04DX002 (ip), vehicle: saline with Tween-80 87 % of control | endpoint: mean survival time, dose: 400.0 mg/kg/injection, schedule: Q04DX002 (ip), vehicle: saline with Tween-80 91 % of control

COc1cccc2c1C(=O)c1c(O)c3c(c(O)c1C2=O)C[C@@](O)(C(=O)COC(=O)Cc1cccc2ccccc12)C[C@@H]3OC1CC(N)C(O)C(C)O1 (some centres undefined)
inactive: endpoint: mean survival time, dose: 0.5 mg/kg/injection, schedule: Q01DX009 (ip), vehicle: saline with Tween-80 118 % of control | endpoint: mean survival time, dose: 1.0 mg/kg/injection, schedule: Q01DX001 (ip), vehicle: other 116 % of control | endpoint: mean survival time, dose: 2.5 mg/kg/injection, schedule: Q01DX001 (ip), vehicle: saline with Tween-80 117 % of control | endpoint: mean survival time, dose: 8.0 mg/kg/injection, schedule: Q01DX009 (ip), vehicle: saline with Tween-80 122 % of control | endpoint: mean survival time, dose: 16.0 mg/kg/injection, schedule: Q01DX009 (ip), vehicle: saline with Tween-80 88 % of control | endpoint: mean survival time, dose: 32.0 mg/kg/injection, schedule: Q01DX001 (ip), vehicle: other 90 % of control
active: endpoint: mean survival time, dose: 5.0 mg/kg/injection, schedule: Q04DX003 (ip), vehicle: other 152 % of control | endpoint: mean survival time, dose: 10.0 mg/kg/injection, schedule: Q04DX003 (ip), vehicle: saline with Tween-80 151 % of control

c1cn[nH]c1
inactive: endpoint: median survival time, dose: 12.5 mg/kg/injection, schedule: Q01DX009 (ip), vehicle: saline + alcohol 103 % of control and 105 % of control | endpoint: median survival time, dose: 12.5 mg/kg/injection, schedule: Q01DX009 (ip), vehicle: saline 95 % of control | endpoint: median survival time, dose: 25.0 mg/kg/injection, schedule: Q01DX009 (ip), vehicle: saline + alcohol 101 % of control and 110 % of control | endpoint: median survival time, dose: 25.0 mg/kg/injection, schedule: Q01DX009 (ip), vehicle: saline 102 % of control | endpoint: median survival time, dose: 50.0 mg/kg/injection, schedule: Q01DX009 (ip), vehicle: saline + alcohol 121 % of control and 105 % of control | endpoint: median survival time, dose: 50.0 mg/kg/injection, schedule: Q01DX009 (ip), vehicle: saline 112 % of control | endpoint: median survival time, dose: 100.0 mg/kg/injection, schedule: Q01DX009 (ip), vehicle: saline + alcohol 117 % of control | endpoint: median survival time, dose: 200.0 mg/kg/injection, schedule: Q01DX009 (ip), vehicle: saline + alcohol 90 % of control and 102 % of control | endpoint: median survival time, dose: 200.0 mg/kg/injection, schedule: Q01DX009 (ip), vehicle: saline 90 % of control

O=c1cn[nH]c2c(Cl)cccc12
inactive: endpoint: mean survival time, dose: 100.0 mg/kg/injection, schedule: Q01DX001 (ip), vehicle: carboxymethylcellulose (CMC) 106 % of control | endpoint: mean survival time, dose: 200.0 mg/kg/injection, schedule: Q01DX001 (ip), vehicle: carboxymethylcellulose (CMC) 95 % of control

O=C1CC2=C(CC(O)=CC=C2)C(=O)O1
inactive: endpoint: mean survival time, dose: 100.0 mg/kg/injection, schedule: Q01DX009 (ip), vehicle: saline 101 % of control | endpoint: mean survival time, dose: 200.0 mg/kg/injection, schedule: Q01DX009 (ip), vehicle: saline 93 % of control

C/C=C1/OC(n2cnc3c(N)ncnc32)C(O)C1O (centres undefined)
inactive: endpoint: mean survival time, dose: 10.0 mg/kg/injection, schedule: Q01DX005 (ip), vehicle: distilled water + Tween-80 103 % of control | endpoint: mean survival time, dose: 20.0 mg/kg/injection, schedule: Q01DX005 (ip), vehicle: distilled water + Tween-80 107 % of control | endpoint: mean survival time, dose: 40.0 mg/kg/injection, schedule: Q01DX005 (ip), vehicle: distilled water + Tween-80 95 % of control | endpoint: mean survival time, dose: 80.0 mg/kg/injection, schedule: Q01DX005 (ip), vehicle: distilled water + Tween-80 100 % of control | endpoint: mean survival time, dose: 160.0 mg/kg/injection, schedule: Q01DX005 (ip), vehicle: distilled water + Tween-80 97 % of control

Nc1cccc2scnc12
inactive: endpoint: mean survival time, dose: 100.0 mg/kg/injection, schedule: Q01DX009 (ip), vehicle: saline with Tween-80 104 % of control | endpoint: mean survival time, dose: 200.0 mg/kg/injection, schedule: Q01DX009 (ip), vehicle: saline with Tween-80 96 % of control

COC(OC(CO)C(O)S(=O)(=O)O)C(O)S(=O)(=O)O (centres undefined)
inactive: endpoint: mean survival time, dose: 50.0 mg/kg/injection, schedule: Q01DX001 (ip), vehicle: saline 103 % of control | endpoint: mean survival time, dose: 50.0 mg/kg/injection, schedule: Q01DX009 (ip), vehicle: saline 124 % of control | endpoint: mean survival time, dose: 50.0 mg/kg/injection, schedule: Q01DX009 (sc), vehicle: saline 104 % of control | endpoint: mean survival time, dose: 50.0 mg/kg/injection, schedule: Q03HX016 (ip), vehicle: saline 115 % of control | endpoint: mean survival time, dose: 100.0 mg/kg/injection, schedule: Q01DX001 (ip), vehicle: saline 118 % of control | endpoint: mean survival time, dose: 100.0 mg/kg/injection, schedule: Q01DX009 (oral), vehicle: saline 105 % of control | endpoint: mean survival time, dose: 100.0 mg/kg/injection, schedule: Q01DX009 (sc), vehicle: saline 101 % of control | endpoint: mean survival time, dose: 100.0 mg/kg/injection, schedule: Q08DX002 (ip), vehicle: saline 109 % of control | endpoint: mean survival time, dose: 200.0 mg/kg/injection, schedule: Q01DX009 (oral), vehicle: saline 92 % of control | endpoint: mean survival time, dose: 200.0 mg/kg/injection, schedule: Q01DX009 (sc), vehicle: saline 101 % of control | endpoint: mean survival time, dose: 200.0 mg/kg/injection, schedule: Q08DX002 (ip), vehicle: saline 120 % of control | endpoint: mean survival time, dose: 400.0 mg/kg/injection, schedule: Q01DX009 (oral), vehicle: saline 94 % of control | endpoint: mean survival time, dose: 400.0 mg/kg/injection, schedule: Q01DX009 (sc), vehicle: saline 106 % of control | endpoint: mean survival time, dose: 800.0 mg/kg/injection, schedule: Q01DX009 (oral), vehicle: saline 94 % of control
active: endpoint: mean survival time, dose: 100.0 mg/kg/injection, schedule: Q03HX008 (ip), vehicle: saline 160 % of control | endpoint: mean survival time, dose: 100.0 mg/kg/injection, schedule: Q03HX016 (ip), vehicle: saline 153 % of control | endpoint: mean survival time, dose: 400.0 mg/kg/injection, schedule: Q01DX009 (ip), vehicle: saline 168 % of control | endpoint: mean survival time, dose: 800.0 mg/kg/injection, schedule: Q04DX003 (ip), vehicle: saline 178 % of control

Cc1ccc(S(=O)(=O)OCC2CC3CCC2C3)cc1 (centres undefined)
inactive: endpoint: mean survival time, dose: 100.0 mg/kg/injection, schedule: Q01DX009 (ip), vehicle: other 102 % of control | [4] 102 % of control | endpoint: mean survival time, dose: 400.0 mg/kg/injection, schedule: Q01DX009 (ip), vehicle: other 93 % of control

O=C(O)Cc1ccncc1
inactive: [1] 97 % of control | [2] 100 % of control | [3] 97 % of control

C1C[N-]CC[N-]1.[Cl][Pt+2][Cl]
inactive: endpoint: mean survival time, dose: 7.8 mg/kg/injection, schedule: Q04DX003 (ip), vehicle: saline with Tween-80 97 % of control | endpoint: mean survival time, dose: 62.5 mg/kg/injection, schedule: Q04DX003 (ip), vehicle: saline with Tween-80 90 % of control | endpoint: mean survival time, dose: 125.0 mg/kg/injection, schedule: Q04DX003 (ip), vehicle: saline with Tween-80 94 % of control
